The target of assay [1] is T1, Genome polyprotein (dengue virus type 2, UniProt P29990). Format: functional, Thailand/16681/1984.
Assay [2] deals with T1, Genome polyprotein. The assay is classed as functional, Thailand/16681/1984. This is another data set of the same source.

One may read the pIC50 as the negative decadic logarithm of the IC50, by convention in mol/L.

pIC50: −log10 of the molar value. Values joined by “and” are separate entries in the source; they are usually repeats but may differ in a detail not shown here. Equal values may be shown once.

T1 sequence (P29990 1346-1475 limits assumed): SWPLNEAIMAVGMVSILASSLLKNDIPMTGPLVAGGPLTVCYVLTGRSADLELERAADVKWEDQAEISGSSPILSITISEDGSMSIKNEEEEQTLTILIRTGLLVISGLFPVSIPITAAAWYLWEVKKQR
T1 sequence (P29990 1476-2093 limits assumed): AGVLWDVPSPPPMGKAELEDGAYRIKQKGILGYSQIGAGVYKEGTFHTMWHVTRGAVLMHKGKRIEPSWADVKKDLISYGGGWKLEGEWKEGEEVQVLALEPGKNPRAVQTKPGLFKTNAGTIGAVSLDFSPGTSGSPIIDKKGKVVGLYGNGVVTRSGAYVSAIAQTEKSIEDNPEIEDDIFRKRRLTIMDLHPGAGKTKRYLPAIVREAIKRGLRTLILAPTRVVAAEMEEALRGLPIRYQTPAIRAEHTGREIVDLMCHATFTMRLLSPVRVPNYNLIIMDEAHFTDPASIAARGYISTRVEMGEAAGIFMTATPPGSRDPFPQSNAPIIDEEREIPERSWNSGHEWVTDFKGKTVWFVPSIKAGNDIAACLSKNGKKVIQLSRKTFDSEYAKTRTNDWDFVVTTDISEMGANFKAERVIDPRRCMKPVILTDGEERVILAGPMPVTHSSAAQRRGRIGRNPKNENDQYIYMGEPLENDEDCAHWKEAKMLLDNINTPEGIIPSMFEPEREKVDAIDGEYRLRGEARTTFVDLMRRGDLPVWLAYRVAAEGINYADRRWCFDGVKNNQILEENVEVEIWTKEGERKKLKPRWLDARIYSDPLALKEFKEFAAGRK

With `COc1cc(Br)cc(C(=O)Nc2ccc3c(c2)CNC3)c1`, the pIC50 at Genome polyprotein [1] and against Genome polyprotein [2] was less than 4.00 each time.

As for `O=C1NCc2c1cccc2C(=O)Nc1ccc2c(c1)CNC2`, the pIC50 at Genome polyprotein [1] and against Genome polyprotein [2] was less than 4.00 in each case.

On to `O=C(NCC(F)F)[C@H](Nc1ccc2c(c1)CNC2)c1cc(Cl)cc(C2CC2)c1`, for which the pIC50 on Genome polyprotein [1] and against Genome polyprotein [2] was less than 4.00 throughout.

For the molecule `CCCN1C(=O)[C@](C#N)(Nc2cccc(-c3nn[nH]n3)c2)c2cc(Cl)ccc21`, the pIC50 on Genome polyprotein [1] and against Genome polyprotein [2] was less than 4.00 in each case.

As to `NCc1ccc(NC(=O)c2cc(Cl)cc3[nH]ncc23)cc1F`, the pIC50 on Genome polyprotein [1] and at Genome polyprotein [2] was less than 4.00 throughout.

As for `O=c1[nH]c2cc(Cl)ccc2n1Cc1ccc(-c2nn[nH]n2)cc1`, the pIC50 at Genome polyprotein [1] and against Genome polyprotein [2] was less than 4.00 throughout.

Regarding `O=C(Nc1ccc2c(c1)CNC2)c1cnnc2ccccc12`, the pIC50 at Genome polyprotein [1] and at Genome polyprotein [2] was less than 4.00 throughout.

Consider `C[C@H]1NCCc2c(-c3ccc4[nH]c(C(=O)O)cc4c3)cc(F)cc21`, for which the pIC50 against Genome polyprotein [1] and on Genome polyprotein [2] was less than 4.00 throughout.

With `CCOC(=O)N1CCC[C@H]1c1cccc(-c2ccc3[nH]c(C(=O)O)cc3c2)c1`, the pIC50 on Genome polyprotein [1] and against Genome polyprotein [2] was less than 4.00 throughout.

As for `Cn1nc(C2CC2)cc1C(=O)Nc1cc(CCCN)ccn1`, the pIC50 at Genome polyprotein [1] and at Genome polyprotein [2] was less than 4.00 in each case.

For the molecule `Cc1cc(C(F)(F)F)cc(C(=O)Nc2ccc3c(c2)CNC3)n1`, the pIC50 on Genome polyprotein [1] was 4.31; on Genome polyprotein [2], less than 4.00.

In the case of `NS(=O)(=O)c1ccc(C(F)F)cc1-c1ccc2[nH]c(C(=O)O)cc2c1`, the pIC50 against Genome polyprotein [1] and on Genome polyprotein [2] was less than 4.00 each time.

`O=C(Nc1ccc2c(c1)CNC2)[C@H]1CCCc2[nH]ncc21`: the pIC50 against Genome polyprotein [1] and on Genome polyprotein [2] was less than 4.00 in each case.

Consider `Cc1nc(C2CC2)sc1C(=O)Nc1cc(CCCN)ccn1`, for which the pIC50 against Genome polyprotein [1] and against Genome polyprotein [2] was less than 4.00 each time.

On to `O=C(Nc1ccc2c(c1)CNC2)c1ncnc2sccc12`, for which the pIC50 against Genome polyprotein [1] and against Genome polyprotein [2] was less than 4.00 throughout.

With `O=C(Nc1cc(Cl)cc(-c2ccc(C3(C(=O)O)CCNCC3)cc2)c1)OCc1ccccc1`, the pIC50 against Genome polyprotein [1] and against Genome polyprotein [2] was less than 4.00 throughout.

Regarding `N[C@H]1CCc2ccc(NC(=O)c3cc(Cl)cc4[nH]ncc34)cc21`, the pIC50 at Genome polyprotein [1] and against Genome polyprotein [2] was less than 4.00 in each case.

For `O=C(O)C1CCC2(CC1)CC(Cc1c[nH]c3ccc(Cl)cc13)C2` (stereo not given), the pIC50 against Genome polyprotein [1] was 4.23; against Genome polyprotein [2] it was 4.50.

As for `Cc1cc(-c2ccc3[nH]c(C(=O)O)cc3c2)c(=O)n(Cc2ccccc2)c1`, the pIC50 against Genome polyprotein [1] and against Genome polyprotein [2] was less than 4.00 in each case.

In the case of `O=C(O)c1ccc2nc(Cc3c[nH]c4ccc(Cl)cc34)cn2c1`, the pIC50 against Genome polyprotein [1] and against Genome polyprotein [2] was less than 4.00 throughout.

As for `N#Cc1ccc2[nH]cc(Cc3ccc(-c4nnn[nH]4)cc3)c2c1`, the pIC50 at Genome polyprotein [1] is less than 4.00; against Genome polyprotein [2], 4.08.

Take `Cn1ccc(-c2cc(CN)cc([C@@H]3C[C@H]3c3cc(Cl)cc(NC(=O)OCc4ccccc4)c3)c2)n1`: the figures for the pIC50 at Genome polyprotein [1] and at Genome polyprotein [2] were 4.20 and less than 4.00, respectively.

Turning to `CC(C)(C)OC(=O)Cc1cc(CN)cc(NC(=O)c2cc(Cl)cc(NC(=O)OCc3ccccc3)c2)c1`, the negative logarithm of the IC50 (pIC50) at Genome polyprotein [1] and on Genome polyprotein [2] was less than 4.00 each time.

For `Cn1nc(C(=O)Nc2cc(CCCN)ccn2)cc1C1CC1`, the pIC50 on Genome polyprotein [1] and against Genome polyprotein [2] was less than 4.00 each time.

Regarding `Clc1cc(CNc2ccc3c(c2)CNC3)c2cn[nH]c2c1`, the pIC50 at Genome polyprotein [1] was 4.72 and 4.26; against Genome polyprotein [2] it was less than 4.00.

Consider `NCc1cc(C(F)(F)F)cc(-c2ccc3[nH]c(C(=O)O)cc3c2)n1`, for which the pIC50 against Genome polyprotein [1] and on Genome polyprotein [2] was less than 4.00 in each case.

`O=C(Nc1ccc2c(c1)OCCNC2)c1cc(Cl)cc2[nH]ncc12`: the pIC50 against Genome polyprotein [1] and against Genome polyprotein [2] was less than 4.00 throughout.

Consider `CNC(=O)[C@]1(Nc2ccc3c(c2)CNC3)CCc2ccccc21`, for which the pIC50 on Genome polyprotein [1] and on Genome polyprotein [2] was less than 4.00 each time.

On to `Cn1cc(CNC(=O)[C@H](Nc2ccc3c(c2)CNC3)c2cc(Cl)cc(C3CC3)c2)cn1`, for which the pIC50 against Genome polyprotein [1] and against Genome polyprotein [2] was less than 4.00 in each case.

Regarding `C(#C[C@H](Nc1ccc2c(c1)CNC2)c1cccc2[nH]ncc12)c1ccccc1`, the pIC50 against Genome polyprotein [1] and on Genome polyprotein [2] was less than 4.00 in each case.

In the case of `O=C(O)c1cc2cc(-c3cc(Cl)cn4ncnc34)ccc2[nH]1`, the pIC50 against Genome polyprotein [1] and at Genome polyprotein [2] was less than 4.00 in each case.

As for `O=C(Nc1ccc2c(c1)COC2)c1cc(Cl)cc2[nH]ncc12`, the pIC50 against Genome polyprotein [1] and against Genome polyprotein [2] was less than 4.00 each time.

Take `O=C(Nc1ccc2c(c1)CN(CC(F)F)C2)c1cc(Cl)cc2[nH]ncc12`: the pIC50 is 4.23 against Genome polyprotein [1] and less than 4.00 against Genome polyprotein [2].

Take `Cn1cc2cc(C#N)cc(-c3ccc4[nH]c(C(=O)O)cc4c3)c2n1`: the negative logarithm of the IC50 (pIC50) at Genome polyprotein [1] and on Genome polyprotein [2] was less than 4.00 in each case.

Regarding `NCc1ccc(NC(=O)c2cc(Cl)cc3[nH]ncc23)cc1`, the pIC50 at Genome polyprotein [1] and against Genome polyprotein [2] was less than 4.00 in each case.

For `Cn1cnc2nc(Cl)cc(C(=O)Nc3ccc4c(c3)CNC4)c21`, the pIC50 at Genome polyprotein [1] and against Genome polyprotein [2] was less than 4.00 each time.

Regarding `NCc1cc(NC(=O)c2cc(Cl)cc(NC(=O)OCc3ccccc3)c2)cc(-c2ccc3c(c2)C[C@H](C(=O)O)CO3)c1`, the negative logarithm of the IC50 (pIC50) at Genome polyprotein [1] is 4.11; at Genome polyprotein [2] it was less than 4.00.

In the case of `C[C@H](NC(=O)c1cc(Cl)cc2[nH]ncc12)c1ccc2c(c1)CNC2`, the pIC50 against Genome polyprotein [1] and against Genome polyprotein [2] was less than 4.00 each time.

`O=C(O)c1cc2cc(-c3cccc([C@H]4CCOC4)n3)ccc2[nH]1`: the pIC50 on Genome polyprotein [1] and against Genome polyprotein [2] was less than 4.00 each time.

`O=C(Nc1ccc2c(c1)CNC2)c1cc(=O)[nH]c2c(F)cccc12`: the pIC50 at Genome polyprotein [1] and at Genome polyprotein [2] was less than 4.00 throughout.

Turning to `NCCCc1ccnc(NC(=O)c2cc(C3CC3)no2)c1`, the pIC50 at Genome polyprotein [1] and against Genome polyprotein [2] was less than 4.00 throughout.

Consider `NCCc1cccc(NC(=O)c2cc(Cl)cc3[nH]ncc23)c1`, for which the pIC50 at Genome polyprotein [1] and against Genome polyprotein [2] was less than 4.00 in each case.

With `O=C(c1cc(Cl)cc2[nH]ncc12)N1CC[C@]2(CCNC2)C1`, the pIC50 at Genome polyprotein [1] and against Genome polyprotein [2] was less than 4.00 in each case.

As to `O=C(Nc1ccc2c(c1)CNCCO2)c1cc(Cl)cc2[nH]ncc12`, the pIC50 on Genome polyprotein [1] and against Genome polyprotein [2] was less than 4.00 each time.

Take `O=C(NC[C@H]1CCCO1)[C@H](Nc1ccc2c(c1)CNC2)c1cc(Cl)cc(C2CC2)c1`: the pIC50 at Genome polyprotein [1] and on Genome polyprotein [2] was less than 4.00 in each case.

Take `CNC(=O)[C@]1(Nc2ccc3c(c2)CNC3)C(=O)Nc2c(OC)cc(Br)cc21`: the pIC50 on Genome polyprotein [1] and against Genome polyprotein [2] was less than 4.00 throughout.

Take `NCc1cc(-c2ccncc2)cc([C@@H]2C[C@H]2c2cc(Cl)cc(NC(=O)OCc3ccccc3)c2)c1`: the pIC50 on Genome polyprotein [1] and on Genome polyprotein [2] was less than 4.00 throughout.

Take `CC(=O)Nc1cc(Br)cc(C(=O)Nc2ccc3c(c2)CNC3)c1`: the pIC50 on Genome polyprotein [1] and against Genome polyprotein [2] was less than 4.00 each time.

In the case of `CCn1ncc2c(C(=O)Nc3ccc4c(c3)CNC4)cc(C)nc21`, the pIC50 on Genome polyprotein [1] and against Genome polyprotein [2] was less than 4.00 each time.

As for `O=C(O)c1ccc(NC(=O)c2cc(Cl)cc3[nH]ncc23)cc1`, the pIC50 at Genome polyprotein [1] and at Genome polyprotein [2] was less than 4.00 in each case.

As for `N#C[C@H](Nc1cc(Cl)cc(C2CC2)c1)c1ccc(-c2nn[nH]n2)cc1`, the negative-log IC50 (pIC50) against Genome polyprotein [1] was 4.57; against Genome polyprotein [2], 4.75.

On to `O=C(Nc1ccc2c(c1)CNC2)c1cc(Br)cc2cccnc12`, for which the pIC50 against Genome polyprotein [1] and at Genome polyprotein [2] was less than 4.00 in each case.

Regarding `Cc1ccc2[nH]ncc2c1C(=O)Nc1ccc2c(c1)CNC2`, the pIC50 against Genome polyprotein [1] and against Genome polyprotein [2] was less than 4.00 in each case.

Consider `O=C(Nc1ccc2c(c1)CNC2)c1ccc(OCC(F)(F)F)nc1`, for which the pIC50 against Genome polyprotein [1] and against Genome polyprotein [2] was less than 4.00 each time.

As to `O=C(O)Cc1cn2nc(-c3cc(Cl)cc(NC(=O)OCc4ccccc4)c3)ccc2n1`, the pIC50 against Genome polyprotein [1] and on Genome polyprotein [2] was less than 4.00 throughout.

On to `CNC(=O)c1ccnc(NC(=O)c2cc(C3CC3)n(C)c2C)c1`, for which the negative logarithm of the IC50 (pIC50) on Genome polyprotein [1] and against Genome polyprotein [2] was less than 4.00 each time.

For the molecule `Cc1c(C(=O)Nc2cc([C@H]3CCOC3)ccn2)cc(C2CC2)n1C`, the pIC50 on Genome polyprotein [1] and on Genome polyprotein [2] was less than 4.00 each time.

With `O=C(Nc1ccc2c(c1)CNC2)c1ccc(F)c2[nH]ncc12`, the values for the pIC50 at Genome polyprotein [1] and against Genome polyprotein [2] were 4.16 and less than 4.00, respectively.

Consider `O=C(O)c1cc2cc(-c3cc(Cl)cc4c3O[C@H](CO)C4)ccc2[nH]1`, for which the pIC50 at Genome polyprotein [1] and against Genome polyprotein [2] was less than 4.00 in each case.

Take `O=C(Nc1cccc2c1CNC2)c1cc(Cl)cc2[nH]ncc12`: the pIC50 at Genome polyprotein [1] and at Genome polyprotein [2] was less than 4.00 throughout.

As for `CCc1nc2ccc(Cl)cc2n1Cc1ccc2c(c1)CNC2`, the pIC50 at Genome polyprotein [1] and at Genome polyprotein [2] was less than 4.00 throughout.

With `CC(C)(C)c1[nH]c2ccc(F)cc2c1Cc1ccc(-c2nnn[nH]2)cc1`, the figures for the pIC50 against Genome polyprotein [1] and against Genome polyprotein [2] were 4.63 and 4.92, respectively.

For `O=C(O)Cn1nc2ccc(-c3cc(Cl)cc(NC(=O)OCc4ccccc4)c3)nn2c1=O`, the pIC50 on Genome polyprotein [1] and against Genome polyprotein [2] was less than 4.00 throughout.

For `Cc1ccc(Oc2ncccc2C#N)c(-c2ccc3[nH]c(C(=O)O)cc3c2)c1`, the pIC50 at Genome polyprotein [1] is 4.06; at Genome polyprotein [2], less than 4.00.

Regarding `O=C(Nc1ccc2c(c1)CNC2)c1cncc(N2CCOCC2)c1`, the pIC50 at Genome polyprotein [1] and against Genome polyprotein [2] was less than 4.00 throughout.

In the case of `CCn1c(C)cc(C(=O)Nc2cc(CCCN)ccn2)c1C`, the pIC50 against Genome polyprotein [1] and at Genome polyprotein [2] was less than 4.00 in each case.

Regarding `Cc1cc(C#N)cc2c(Cc3ccc(-c4nnn[nH]4)cc3)c[nH]c12`, the values for the pIC50 on Genome polyprotein [1] and against Genome polyprotein [2] were 4.13 and 4.46, respectively.

On to `COc1nnc(C(F)(F)F)cc1-c1ccc2[nH]c(C(=O)O)cc2c1`, for which the pIC50 on Genome polyprotein [1] and against Genome polyprotein [2] was less than 4.00 each time.

As to `Cc1c(C(=O)Nc2ncc3c(c2C#N)CCOC3)cc(C2CC2)n1C`, the negative logarithm of the IC50 (pIC50) against Genome polyprotein [1] and on Genome polyprotein [2] was less than 4.00 throughout.

On to `COCCCN1Cc2ccc(NC(=O)c3cc(Cl)cc4[nH]ncc34)cc2C1`, for which the pIC50 against Genome polyprotein [1] and against Genome polyprotein [2] was less than 4.00 each time.

Values taken from ChEMBL document CHEMBL5604063, “ASAP - DENV-2 NS2B-NS3 protease fluorescence dose response” (2024).
